ChEMBL document CHEMBL4130433, “Acridone-pyrimidine hybrids- design, synthesis, cytotoxicity studies in resistant and sensitive cancer cells and molecular docking studies” (Eur J Med Chem, 2017)

What was measured:
[1] = tested on: Rattus norvegicus; assay: Toxicity in overnight fasted albino Wistar rat assessed as body weight at 5000 mg/kg, po administered as single dose followed by fasting for 3 hrs measured on day 14 post dose (reference value: 191 +/- 18 g); assay type: organism-based; details: in vivo
[2] = tested on: Rattus norvegicus; assay: Toxicity in overnight fasted albino Wistar rat assessed as body weight at 300 mg/kg, po administered as single dose followed by fasting for 3 hrs measured on day 5 post dose (reference value: 172 +/- 14 g); assay type: organism-based; details: in vivo
[3] = tested on: Rattus norvegicus; assay: Toxicity in overnight fasted albino Wistar rat assessed as body weight at 300 mg/kg, po administered as single dose followed by fasting for 3 hrs measured on day 13 post dose (reference value: 188 +/- 16 g); assay type: organism-based; details: in vivo
[4] = tested on: Rattus norvegicus; assay: Toxicity in overnight fasted albino Wistar rat assessed as body weight at 2000 mg/kg, po administered as single dose followed by fasting for 3 hrs measured on day 6 post dose (reference value: 173 +/- 12 g); assay type: organism-based; details: in vivo
[5] = tested on: Rattus norvegicus; assay: Toxicity in overnight fasted albino Wistar rat assessed as body weight at 2000 mg/kg, po administered as single dose followed by fasting for 3 hrs measured on day 8 post dose (reference value: 177 +/- 8 g); assay type: organism-based; details: in vivo
[6] = tested on: Rattus norvegicus; assay: Toxicity in overnight fasted albino Wistar rat assessed as body weight at 300 mg/kg, po administered as single dose followed by fasting for 3 hrs measured on day 10 post dose (reference value: 182 +/- 15 g); assay type: organism-based; details: in vivo
[7] = Antiproliferative activity against human MCF7/DX cells after 72 hrs by MTT assay; assay type: functional, cell-based
[8] = tested on: Rattus norvegicus; assay: Toxicity in overnight fasted albino Wistar rat assessed as body weight at 5000 mg/kg, po administered as single dose followed by fasting for 3 hrs measured on day 5 post dose (reference value: 172 +/- 14 g); assay type: organism-based; details: in vivo
[9] = tested on: Rattus norvegicus; assay: Toxicity in overnight fasted albino Wistar rat assessed as body weight at 5000 mg/kg, po administered as single dose followed by fasting for 3 hrs measured on day 3 post dose (reference value: 166 +/- 10 g); assay type: organism-based; details: in vivo
[10] = tested on: MCF7; assay: Antiproliferative activity against human MCF7 cells after 72 hrs by MTT assay; assay type: functional, cell-based; details: MCF7, 72 h
[11] = tested on: Rattus norvegicus; assay: Toxicity in overnight fasted albino Wistar rat assessed as body weight at 2000 mg/kg, po administered as single dose followed by fasting for 3 hrs measured on day 13 post dose (reference value: 188 +/- 16 g); assay type: organism-based; details: in vivo
[12] = tested on: 2008; assay: Antiproliferative activity against human 2008 cells after 72 hrs by MTT assay; assay type: functional, cell-based; details: Homo sapiens, 2008, 72 h
[13] = tested on: Rattus norvegicus; assay: Toxicity in overnight fasted albino Wistar rat assessed as body weight at 2000 mg/kg, po administered as single dose followed by fasting for 3 hrs measured on day 12 post dose (reference value: 186 +/- 13 g); assay type: organism-based; details: in vivo
[14] = tested on: Rattus norvegicus; assay: Toxicity in overnight fasted albino Wistar rat assessed as body weight at 5000 mg/kg, po administered as single dose followed by fasting for 3 hrs measured on day 1 post dose (reference value: 162 +/- 8 g); assay type: organism-based; details: in vivo
[15] = tested on: Rattus norvegicus; assay: Toxicity in overnight fasted albino Wistar rat assessed as clinical signs at 300 to 5000 mg/kg, po administered as single dose followed by fasting for 3 hrs measured for every 1 hr up to 12 hrs on first day of dosing and thereafter twice in a day for 14 days; assay type: organism-based; details: in vivo
[16] = tested on: Rattus norvegicus; assay: Toxicity in overnight fasted albino Wistar rat assessed as body weight at 5000 mg/kg, po administered as single dose followed by fasting for 3 hrs measured on day 9 post dose (reference value: 180 +/- 12 g); assay type: organism-based; details: in vivo
[17] = tested on: 2008; assay: Antiproliferative activity against resistant human 2008 cells clone 6 harboring MRP1 after 72 hrs by MTT assay; assay type: functional, cell-based; details: Homo sapiens, 2008, 72 h
[18] = tested on: Rattus norvegicus; assay: Toxicity in overnight fasted albino Wistar rat assessed as body weight at 300 mg/kg, po administered as single dose followed by fasting for 3 hrs measured on day 12 post dose (reference value: 186 +/- 13 g); assay type: organism-based; details: in vivo
[19] = tested on: Rattus norvegicus; assay: Toxicity in overnight fasted albino Wistar rat assessed as body weight at 300 mg/kg, po administered as single dose followed by fasting for 3 hrs measured on day 1 post dose (reference value: 162 +/- 8 g); assay type: organism-based; details: in vivo
[20] = tested on: Rattus norvegicus; assay: Toxicity in overnight fasted albino Wistar rat assessed as body weight at 300 mg/kg, po administered as single dose followed by fasting for 3 hrs measured on day 7 post dose (reference value: 175 +/- 10 g); assay type: organism-based; details: in vivo
[21] = biological target: RAC-alpha serine/threonine-protein kinase (Homo sapiens, UniProt P31749); assay: Inhibition of PH domain lacking AKT1 (unknown origin) using Tamara-labeled GRPRTSSFAEG peptide as substrate after 90 mins by fluorescence polarization IMAP assay
RAC-alpha serine/threonine-protein kinase, sequence (P31749 whole entry, the tested form may be a part): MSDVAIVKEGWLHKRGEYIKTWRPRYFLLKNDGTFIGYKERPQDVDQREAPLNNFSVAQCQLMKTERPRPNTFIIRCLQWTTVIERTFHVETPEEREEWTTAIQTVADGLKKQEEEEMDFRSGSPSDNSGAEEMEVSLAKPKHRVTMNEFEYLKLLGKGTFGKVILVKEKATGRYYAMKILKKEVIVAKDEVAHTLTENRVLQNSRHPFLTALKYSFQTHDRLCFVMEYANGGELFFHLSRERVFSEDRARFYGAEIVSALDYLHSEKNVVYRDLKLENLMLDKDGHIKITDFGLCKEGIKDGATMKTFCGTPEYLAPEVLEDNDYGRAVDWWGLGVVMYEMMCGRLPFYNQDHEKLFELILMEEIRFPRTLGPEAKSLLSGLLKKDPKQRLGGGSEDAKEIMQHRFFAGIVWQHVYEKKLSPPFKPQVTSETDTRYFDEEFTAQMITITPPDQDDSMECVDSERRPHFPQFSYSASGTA

[22] = tested on: Rattus norvegicus; assay: Toxicity in overnight fasted albino Wistar rat assessed as body weight at 2000 mg/kg, po administered as single dose followed by fasting for 3 hrs measured on day 5 post dose (reference value: 172 +/- 14 g); assay type: organism-based; details: in vivo
[23] = tested on: Rattus norvegicus; assay: Toxicity in overnight fasted albino Wistar rat assessed as body weight at 5000 mg/kg, po administered as single dose followed by fasting for 3 hrs measured on day 7 post dose (reference value: 175 +/- 10 g); assay type: organism-based; details: in vivo
[24] = tested on: Rattus norvegicus; assay: Toxicity in overnight fasted albino Wistar rat assessed as body weight at 2000 mg/kg, po administered as single dose followed by fasting for 3 hrs measured on day 2 post dose (reference value: 165 +/- 12 g); assay type: organism-based; details: in vivo
[25] = Cytotoxicity against African green monkey Vero cells after 72 hrs by MTT assay; assay type: cell-based; details: chlorocebus sabaeus
[26] = tested on: A549; assay: cells; details: Homo sapiens, A549, 72 h
Description: Antiproliferative activity against human A549 cells after 72 hrs by MTT assay

[27] = tested on: SW1573; assay: Antiproliferative activity against human SW1573 cells after 72 hrs by MTT assay; assay type: functional, cell-based; details: SW1573, 72 h
[28] = tested on: Rattus norvegicus; assay: Toxicity in overnight fasted albino Wistar rat assessed as body weight at 300 mg/kg, po administered as single dose followed by fasting for 3 hrs measured on day 3 post dose (reference value: 166 +/- 10 g); assay type: organism-based; details: in vivo
[29] = tested on: SW1573; assay: Antiproliferative activity against resistant human SW1573 2R 120 cells harboring MRP1 after 72 hrs by MTT assay; assay type: functional, cell-based; details: SW1573, 72 h
[30] = tested on: Rattus norvegicus; assay: Toxicity in overnight fasted albino Wistar rat assessed as body weight at 2000 mg/kg, po administered as single dose followed by fasting for 3 hrs measured on day 11 post dose (reference value: 185 +/- 8 g); assay type: organism-based; details: in vivo
[31] = tested on: Rattus norvegicus; assay: Toxicity in overnight fasted albino Wistar rat assessed as body weight at 300 mg/kg, po administered as single dose followed by fasting for 3 hrs measured on day 4 post dose (reference value: 169 +/- 5 g); assay type: organism-based; details: in vivo
[32] = tested on: Rattus norvegicus; assay: Toxicity in overnight fasted albino Wistar rat assessed as body weight at 5000 mg/kg, po administered as single dose followed by fasting for 3 hrs measured on day 4 post dose (reference value: 169 +/- 5 g); assay type: organism-based; details: in vivo
[33] = tested on: Rattus norvegicus; assay: Toxicity in overnight fasted albino Wistar rat assessed as body weight at 5000 mg/kg, po administered as single dose followed by fasting for 3 hrs measured on day 11 post dose (reference value: 185 +/- 8 g); assay type: organism-based; details: in vivo
[34] = tested on: Rattus norvegicus; assay: Toxicity in overnight fasted albino Wistar rat assessed as body weight at 5000 mg/kg, po administered as single dose followed by fasting for 3 hrs measured on day 8 post dose (reference value: 177 +/- 8 g); assay type: organism-based; details: in vivo

With COC(=O)c1c(C)nc(NNC(=O)c2cccc3c(=O)c4ccccc4[nH]c23)nc1-c1ccc(OC)c(OC)c1 the Activity [1] was 228 g, the Activity [2] was 188 g and the Activity [3] was 204 g. It also gave an Activity [4] of 194 g, an Activity [5] of 197 g and an Activity [6] of 193 g. It also gave an IC50 [7] of 78 µM, an Activity [8] of 198 g and an Activity [9] of 192 g. The IC50 [10] was 65 µM, the Activity [11] was 209 g and the IC50 [12] was 26 µM. For the same compound, the Activity [13] was 206 g, the Activity [14] was 188 g and the Activity [15] was “Non-Toxic”. For the same compound, the Activity [16] was 212 g, the IC50 [17] was 65 µM and the Activity [18] was 199 g. For the same compound, the Activity [19] was 182 g, the Activity [20] was 191 g and the IC50 [21] was 0.311 µM. The Activity [22] was 190 g, the Activity [23] was 206 g and the Activity [24] was 184 g. The CC50 at 72 h [25] was 85.7 µM, the IC50 [26] was 29.1 µM and the IC50 [27] was 4 µM. For the same compound, the Activity [28] was 185 g, the IC50 [29] was greater than 100 µM and the Activity [30] was 205 g. The Activity [31] was 186 g, the Activity [32] was 196 g and the Activity [33] was 219 g. For the same compound, the Activity [34] was 208 g.
